Where two headings read alike, the source gives them in different places.
Legend:
[1] = system: HCV genotype 1a (H77 strain) replicon in HUH-7 cells; experiment: HCV replicon luciferase reporter assay, genotype 1a; type: cell-based; conditions: Hepatitis C virus, Huh-7, 72 h, HCV genotype 1a replicon luciferase, 3 days incubation
Summary of the method: (§1)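 Replicon inhibition for both genotypes was measured as Renilla luciferase signal (EnduRen, 7.5 μM final, 2 h) after 3-day, 37° C exposure of replicon-bearing HUH-7 cells in 4% FCS DMEM, 0.5% DMSO. The 1b construct carries S1179I; the 1a H77 construct carries P1496L and S2204I. Twenty-point, 3-fold dilutions were fitted four-parametrically for EC50, and CC50 was taken from multiplexed Cell Titer-Blue.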

[2] = system: HCV genotype 1b (Con1) replicon in HUH-7 cells; experiment: HCV replicon luciferase reporter assay, genotype 1b; type: cell-based; conditions: Hepatitis C virus, Huh-7, 72 h, HCV genotype 1b replicon luciferase, 3 days incubation
Summary of the method: as §1

[3] = GETYPE1A, read-out: LE_1a (EC50, range)
[4] = GETYPE1B, read-out: LE_1b (EC50, range)

Compound | EC50 [1, 3] [nM] | EC50 [2, 4] [nM] | EC50 ([1]; read-out: LE_1a (EC50)) [nM] | EC50 ([1]; read-out: LE_1a (EC50, range)) [nM] | EC50 ([2]; read-out: LE_1b (EC50)) [nM] | EC50 ([2]; read-out: LE_1b (EC50, range)) [nM]
CC[C@@H]1C[C@H](C)CC/C=C\[C@@H]2C[C@@]2(C(=O)NS(=O)(=O)C2CC2)NC(=O)[C@@H]2C[C@@H](Oc3nc4cc(OC)ccc4nc3C(F)(F)F)CN2C(=O)[C@H]1NC(=O)OC(C)(C)C(F)(F)F [Compound 4263] | 1.01 to 5 | 0.51 to 1 |  |  |  | 
CC[C@@H]1C[C@H](C)CC/C=C\[C@@H]2C[C@@]2(C(=O)NS(=O)(=O)C2CC2)NC(=O)[C@@H]2C[C@@H](Oc3nc4cc(OC)c(F)cc4nc3O)CN2C(=O)[C@H]1NC(=O)OC(C)(C)C [Compound 4265, tert-butyl ((2R,6S,7R,9R,13aS,14aR,16aS,Z)-14a-((cyclopropylsulfonyl)carbamoyl)-7-ethyl-2-((6-fluoro-3-hydroxy-7-methoxyquinoxalin-2-yl)oxy)-9-methyl-5,16-dioxo-1,2,3,5,6,7,8,9,10,11,13a,14,14a,15,16,16a-hexadecahydrocyclopropa[e]pyrrolo[1,2-a][1,4]diazacyclopentadecin-6-yl)carbamate] |  |  | 616 | 35 to 620 | 475 | 35 to 620
CC[C@@H]1C[C@H](C)CC/C=C\[C@@H]2C[C@@]2(C(=O)NS(=O)(=O)C2CC2)NC(=O)[C@@H]2C[C@@H](Oc3nc4cc(OC)c(F)cc4nc3C(F)(F)F)CN2C(=O)[C@H]1NC(=O)OC(C)(C)C [Compound 4266, tert-butyl ((2R,6S,7R,9R,13aS,14aR,16aS,Z)-14a-((cyclopropylsulfonyl)carbamoyl)-7-ethyl-2-((6-fluoro-7-methoxy-3-(trifluoromethyl)quinoxalin-2-yl)oxy)-9-methyl-5,16-dioxo-1,2,3,5,6,7,8,9,10,11,13a,14,14a,15,16,16a-hexadecahydrocyclopropa[e]pyrrolo[1,2-a][1,4]diazacyclopentadecin-6-yl)carbamate] |  |  |  | 1.01 to 5 |  | 1.01 to 5
CC[C@@H]1C[C@H](C)CC/C=C\[C@@H]2C[C@@]2(C(=O)NS(=O)(=O)C2CC2)NC(=O)[C@@H]2C[C@@H](Oc3nc4cc(OC)c(F)cc4nc3C(F)(F)F)CN2C(=O)[C@H]1NC(=O)OC(C)(C)C(F)(F)F [Compound 4267] | 5.01 to 35 | 1.01 to 5 |  |  |  | 
CC[C@@H]1C[C@H](C)CC/C=C\[C@@H]2C[C@@]2(C(=O)NS(=O)(=O)C2(C)CC2)NC(=O)[C@@H]2C[C@@H](Oc3nc4cc(OC)c(F)cc4nc3C(F)(F)F)CN2C(=O)[C@H]1NC(=O)OC(C)(C)C(F)(F)F [Compound 4268] | 1.01 to 5 | 1.01 to 5 |  |  |  | 
CC[C@@H]1C[C@H](C)CC/C=C\[C@@H]2C[C@@]2(C(=O)NS(=O)(=O)C2(C)CC2)NC(=O)[C@@H]2C[C@@H](Oc3ncc(N(CC)CC)c4cc(OC)ccc34)CN2C(=O)[C@H]1NC(=O)OC(C)(C)C(F)(F)F [Compound 4269] | 1.01 to 5 | 1.01 to 5 |  |  |  | 
CC[C@@H]1C[C@H](C)CC/C=C\[C@@H]2C[C@@]2(C(=O)NS(=O)(=O)C2CC2)NC(=O)[C@@H]2C[C@@H](Oc3nc4cc(OC)ccc4nc3Cl)CN2C(=O)[C@H]1NC(=O)OC(C)(C)C [Compound 4270, tert-butyl ((2R,6S,7R,9R,13aS,14aR,16aS,Z)-2-((3-chloro-7-methoxyquinoxalin-2-yl)oxy)-14a-((cyclopropylsulfonyl)carbamoyl)-7-ethyl-9-methyl-5,16-dioxo-1,2,3,5,6,7,8,9,10,11,13a,14,14a,15,16,16a-hexadecahydrocyclopropa[e]pyrrolo[1,2-a][1,4]diazacyclopentadecin-6-yl)carbamate] |  |  |  | 1.01 to 5 |  | 0.1 to 0.5
CC[C@@H]1C[C@H](C)CC/C=C\[C@@H]2C[C@@]2(C(=O)NS(=O)(=O)C2CC2)NC(=O)[C@@H]2C[C@@H](Oc3nc4cc(OC)ccc4nc3Cl)CN2C(=O)[C@H]1NC(=O)OC(C)(C)C(F)(F)F [Compound 4271] | 1.01 to 5 | 0.1 to 0.5 |  |  |  | 
CC[C@@H]1C[C@H](C)CC/C=C\[C@@H]2C[C@@]2(C(=O)NS(=O)(=O)C2CC2)NC(=O)[C@@H]2C[C@@H](Oc3nc4cc(OC)ccc4nc3C(C)C)CN2C(=O)[C@H]1NC(=O)OC(C)(C)C [Compound 4272, tert-butyl ((2R,6S,7R,9R,13aS,14aR,16aS,Z)-14a-((cyclopropylsulfonyl)carbamoyl)-7-ethyl-2-((3-isopropyl-7-methoxyquinoxalin-2-yl)oxy)-9-methyl-5,16-dioxo-1,2,3,5,6,7,8,9,10,11,13a,14,14a,15,16,16a-hexadecahydrocyclopropa[e]pyrrolo[1,2-a][1,4]diazacyclopentadecin-6-yl)carbamate] |  |  |  | 5.01 to 35 |  | 1.01 to 5
CC[C@@H]1C[C@H](C)CC/C=C\[C@@H]2C[C@@]2(C(=O)NS(=O)(=O)C2CC2)NC(=O)[C@@H]2C[C@@H](Oc3nc4cc(OC)ccc4nc3C(C)C)CN2C(=O)[C@H]1NC(=O)OC(C)(C)C(F)(F)F [Compound 4273] | 5.01 to 35 | 1.01 to 5 |  |  |  | 
CC[C@@H]1C[C@H](C)CC/C=C\[C@@H]2C[C@@]2(C(=O)NS(=O)(=O)C2(C)CC2)NC(=O)[C@@H]2C[C@@H](Oc3ncc(C(=O)O)c4cc(OC)ccc34)CN2C(=O)[C@H]1NC(=O)OC(C)(C)C(F)(F)F [Compound 4276, 1-(((2R,6S,7R,9R,13aS,14aR,16aS,Z)-7-ethyl-9-methyl-14a-(((1-methylcyclopropyl)sulfonyl)carbamoyl)-5,16-dioxo-6-((((1,1,1-trifluoro-2-methylpropan-2-yl)oxy)carbonyl)amino)-1,2,3,5,6,7,8,9,10,11,13a,14,14a,15,16,16a-hexadecahydrocyclopropa[e]pyrrolo[1,2-a][1,4]diazacyclopentadecin-2-yl)oxy)-6-methoxyisoquinoline-4-carboxylic acid] |  |  |  | 35 to 620 |  | 35 to 620
CC[C@@H]1C[C@H](C)CC/C=C\[C@@H]2C[C@@]2(C(=O)NS(=O)(=O)C2(C)CC2)NC(=O)[C@@H]2C[C@@H](Oc3ncc(C(=O)O)c4cc(OC)ccc34)CN2C(=O)[C@H]1NC(=O)OC(C)(C)C [Compound 4277, 1-(((2R,6S,7R,9R,13aS,14aR,16aS,Z)-6-((tert-butoxycarbonyl)amino)-7-ethyl-9-methyl-14a-(((1-methylcyclopropyl)sulfonyl)carbamoyl)-5,16-dioxo-1,2,3,5,6,7,8,9,10,11,13a,14,14a,15,16,16a-hexadecahydrocyclopropa[e]pyrrolo[1,2-a][1,4]diazacyclopentadecin-2-yl)oxy)-6-methoxyisoquinoline-4-carboxylic acid] |  |  | ≥ 1000 | 35 to 620 | 218 | 35 to 620
CC[C@@H]1C[C@H](C)CC/C=C\[C@@H]2C[C@@]2(C(=O)NS(=O)(=O)C2CC2)NC(=O)[C@@H]2C[C@@H](Oc3ncc(C(=O)O)c4cc(OC)ccc34)CN2C(=O)[C@H]1NC(=O)OC(C)(C)C [Compound 4278, 1-(((2R,6S,7R,9R,13aS,14aR,16aS,Z)-6-((tert-butoxycarbonyl)amino)-14a-((cyclopropylsulfonyl)carbamoyl)-7-ethyl-9-methyl-5,16-dioxo-1,2,3,5,6,7,8,9,10,11,13a,14,14a,15,16,16a-hexadecahydrocyclopropa[e]pyrrolo[1,2-a][1,4]diazacyclopentadecin-2-yl)oxy)-6-methoxyisoquinoline-4-carboxylic acid] |  |  |  | 35 to 620 |  | 35 to 620

From patent US9499550B2 (BRISTOL-MYERS SQUIBB COMPANY, priority 2012, dated 2016)
